Experimental data taken from US4958010A, “Epipodophyllotoxin glucoside lactam derivatives” (Bristol-Myers Company, priority 1989, dated 1990).
In brackets after ≈: the same amount, converted by molar mass. Several values for one entry are separate records, joined by “and”; a condition that tells them apart may be missing. Equal values may be shown once.

What was measured:
Assay type in all cases: cell-based
B16-F10 murine melanoma = experiment: in vitro cytotoxicity assay, B16-F10 murine melanoma; settings: four-fold serial dilution, replicate determinations on separate lines; for IC50: Mus musculus, B16-F10, concentration required to inhibit cell growth by 50%; for IC50 B16-F10: concentration required to inhibit cell growth by 50%
Description: (§1) Representative compounds of the present invention were also evaluated in in vitro cytotoxicity assay against various murine and human tumor cell lines. The in vitro cytotoxicity assay involved growing various mammalian tumor cells, including human tumor cells, on microtitre plates employing established tissue culture methods. The concentration of each compound required to inhibit cell growth by 50% (IC50) was then determined by four-fold serial dilution technique. Tumor cells of the following types were employed for each compound tested: B16-F10 murine melanoma; Moser human colon; SW900 human lung; and two human colon tumor cell lines namely HCT-116, and HCT/VP35, the latter being resistant to etoposide (VP). […] The in vitro data may also be evaluated in terms of potency ratio which is defined as the ratio of IC50 against an etoposide-resistant cell-line to IC50 against an etoposide-sensitive cell-line.

HCT-116 = experiment: in vitro cytotoxicity assay, HCT-116 human colon tumor; settings: four-fold serial dilution, replicate determinations on separate lines; for IC50: Homo sapiens, HCT-116, concentration required to inhibit cell growth by 50%; for IC50 HCT-116: concentration required to inhibit cell growth by 50%
Description: as §1

HCT/VP35 = experiment: in vitro cytotoxicity assay, HCT/VP35 human colon tumor resistant to etoposide; settings: for IC50: Homo sapiens, HCT/VP35, etoposide-resistant line; for IC50 / IC50 HCT/VP35: concentration required to inhibit cell growth by 50%, four-fold serial dilution, replicate determinations on separate lines; for IC50 HCT/VP35: etoposide-resistant line
Description: as §1

SW900 human lung = experiment: in vitro cytotoxicity assay, SW900 human lung; settings: four-fold serial dilution, replicate determinations on separate lines; for IC50: Homo sapiens, SW900, concentration required to inhibit cell growth by 50%; for IC50 SW900: concentration required to inhibit cell growth by 50%
Description: as §1

Moser human colon = experiment: in vitro cytotoxicity assay, Moser human colon; settings: concentration required to inhibit cell growth by 50%, four-fold serial dilution, replicate determinations on separate lines; for IC50: Homo sapiens
Description: as §1

Compound | IC50 (B16-F10 murine melanoma) | IC50 B16-F10 (B16-F10 murine melanoma) | IC50 (HCT-116) | IC50 HCT-116 (HCT-116) | IC50 (HCT/VP35) | IC50 HCT/VP35 (HCT/VP35) | potency ratio IC50 HCT/VP35 : IC50 HCT-116 (HCT/VP35; ratio of IC50 against etoposide-resistant cell line to IC50 against etoposide-sensitive cell line, same experiment) | IC50 (SW900 human lung) | IC50 SW900 (SW900 human lung) | IC50 (Moser human colon) | IC50 Moser (Moser human colon)
CCCCCCCC(=O)Oc1c(OC)cc([C@@H]2c3cc4c(cc3[C@@H](O[C@@H]3O[C@@H]5CO[C@@H](C)O[C@H]5[C@H](O)[C@H]3O)[C@H]3CN(N=Cc5ccccc5)C(=O)[C@H]23)OCO4)cc1OC [Example 10, 6H-Pyrrolo[3',4':6,7]naphtho[2,3-d]-1,3-dioxole-6-one, 5,5a,7,8,8a,9-hexahydro-9-[(4,6-O-ethylidene-β-D-glucopyranosyl)oxy]-5-[(3,5-dimethoxy-4-octanoyloxy)phenyl]-7-[(phenylmethylene)amino]-, [5R-[5α,5aβ,8aα, 9β(R*)]-] | 23.6 µg/mL (≈ 29 µM) | 16.76 µg/mL (≈ 20.5 µM) | 17.3 µg/mL (≈ 21.1 µM) | 16.05 µg/mL (≈ 19.6 µM) | 25.6 µg/mL (≈ 31.3 µM) | 13.50 µg/mL (≈ 16.5 µM) | 1 | 21.2 µg/mL (≈ 26 µM) | 19.82 µg/mL (≈ 24.3 µM) | 25.6 µg/mL (≈ 31.3 µM) | 16.38 µg/mL (≈ 20.1 µM)
CCCCCCCC=NN1C[C@H]2[C@H](C1=O)[C@H](c1cc(OC)c(O)c(OC)c1)c1cc3c(cc1[C@H]2O[C@@H]1O[C@@H]2CO[C@@H](C)O[C@H]2[C@H](O)[C@H]1O)OCO3 [Example 9, 6H-Pyrrolo[3',4':6,7]naphtho[2,3-d]-1,3-dioxole-6-one, 5,5a,7,8,8a,9-hexahydro-9-[(4,6-O-ethylidene-β-D-glucopyranosyl)oxy]-5-[(4-hydroxy-3,5-dimethoxy)phenyl]-7-[(octylidene)amino]-, [5R-[5α,5aβ,8aα,9β(R*)]-] | 6.64 µg/mL (≈ 9.32 µM) | 6.70 µg/mL and 10.21 µg/mL |  | 3.39 µg/mL and 4.68 µg/mL and 16.63 µg/mL |  | 6.85 µg/mL and 23.65 µg/mL |  |  | 21.21 µg/mL and 52.18 µg/mL and 95.53 µg/mL | 11.5 µg/mL (≈ 16.1 µM) | 15.09 µg/mL and 15.98 µg/mL
COc1cc([C@@H]2c3cc4c(cc3[C@@H](O[C@@H]3O[C@@H]5CO[C@@H](C)O[C@H]5[C@H](O)[C@H]3O)[C@H]3CNC(=O)[C@H]23)OCO4)cc(OC)c1O [Example 5, 6H-Pyrrolo[3',4':6,7]naphtho[2,3-d]-1,3-dioxole-6-one,5,5a,7,8,8a,9-hexahydro-9-[(4,6-O-ethylidene-β-D-glucopyranosyl)oxy]-5-[(4-hydroxy-3,5-dimethoxy)phenyl]-, [5R-[5α,5aα,8aα, 9β(R*)]-] |  | 27.92 µg/mL and 72.27 µg/mL | 56.1 µg/mL (≈ 95.5 µM) | 66.52 µg/mL (≈ 113 µM) | 103 µg/mL (≈ 175 µM) | 111.78 µg/mL (≈ 190 µM) |  | 107 µg/mL (≈ 183 µM) | 123.53 µg/mL (≈ 210 µM) | 81.1 µg/mL (≈ 138 µM) | 102.51 µg/mL (≈ 174 µM)
COc1cc([C@@H]2c3cc4c(cc3[C@@H](O[C@@H]3O[C@@H]5CO[C@@H](C)O[C@H]5[C@H](O)[C@H]3O)[C@H]3CN(NCc5ccccc5)C(=O)[C@H]23)OCO4)cc(OC)c1O [Example 4, 6H-Pyrrolo[3',4':6,7]naphtho[2,3-d]-1,3-dioxole-6-one, 5,5a,7,8,8a,9-hexahydro-9-[(4,6-O-ethylidene-β-D-glucopyranosyl)oxy]-5-[(4-hydroxy-3,5-dimethoxy)phenyl]-7-[(phenylmethyl)amino]-, [5R-[5α,5aβ,8aα,9β(R*)]-] | 73.4 µg/mL (≈ 106 µM) | 95.19 µg/mL (≈ 137 µM) | 105 µg/mL (≈ 151 µM) | 113.88 µg/mL (≈ 164 µM) | > 250 µg/mL |  |  | > 250 µg/mL |  |  | 122.94 µg/mL and > 250 µg/mL
COc1cc([C@@H]2c3cc4c(cc3[C@@H](O[C@@H]3O[C@@H]5CO[C@@H](C)O[C@H]5[C@H](O)[C@H]3O)[C@H]3CN(N=Cc5ccc([N+](=O)[O-])cc5)C(=O)[C@H]23)OCO4)cc(OC)c1O [Example 6, 6H-Pyrrolo[3',4':6,7]naphtho[2,3-d]-1,3-dioxole-6-one, 5,5a,7,8,8a,9-hexahydro-9-[(4,6-O-ethylidene-δ-D-glucopyranosyl)oxy]-5-[(4-hydroxy-3,5-dimethoxy)phenyl]-7-[[(4-nitrophenyl)methylene]amino], [5R-[5α,5aβ,8aα,9β(R*)]-] |  | 7.73 µg/mL and 16.11 µg/mL | 83.6 µg/mL (≈ 114 µM) | 60.66 µg/mL (≈ 82.5 µM) | > 250 µg/mL |  |  | > 250 µg/mL |  | > 250 µg/mL | 
